Here are results for 22 compounds from patent US12662490B2, “Heterocyclic compounds” (Hoffmann-La Roche Inc., priority 2019, dated 2026).

The target in this assay is T1, MAGL (Homo sapiens, UniProt Q99685).
T1 sequence (Q99685 1-303): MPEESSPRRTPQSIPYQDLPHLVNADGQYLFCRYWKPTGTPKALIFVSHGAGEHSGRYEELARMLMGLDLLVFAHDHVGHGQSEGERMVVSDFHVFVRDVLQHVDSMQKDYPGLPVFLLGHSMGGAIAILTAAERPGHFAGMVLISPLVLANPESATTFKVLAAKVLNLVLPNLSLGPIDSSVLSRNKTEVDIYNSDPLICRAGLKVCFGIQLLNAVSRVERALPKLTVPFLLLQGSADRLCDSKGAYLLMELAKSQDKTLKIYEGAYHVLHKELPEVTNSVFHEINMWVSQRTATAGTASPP
Put plainly: 2-AG assay (MAGL inhibitory activity; hydrolysis of 2-arachidonoylglycerol to arachidonic acid followed by mass spectrometry). The conditions noted are these: 15 min preincubation at RT, 8 μM 2-arachidonoylglycerol, 30 min at RT, RapidFire MS readout. Type of assay: biochemical. The method, then: Compounds were profiled for MAGL inhibitory activity by determining the enzymatic activity by following the hydrolysis of the natural substrate 2-arachidonoylglycerol (2-AG) resulting in arachidonic acid, which can be followed by mass spectrometry. This assay is hereinafter abbreviated “2-AG assay”.
The 2-AG assay was carried out in 384 well assay plates (PP, Greiner Cat #784201) in a total volume of 20 μL. Compound dilutions were made in […] (VWR Chemicals 23500.297) in a polypropylene plate in 3-fold dilution steps to give a final concentration range in the assay from 12.5 μM to […]. 0.25 μL compound dilutions (100% DMSO) were added to 9 μL MAGL in assay buffer (50 mM TRIS (GIBCO, 15567-027), 1 mM EDTA (Fluka, 03690-100 mL), 0.010 (v/v) Tween. After shaking, the plate was incubated for 15 min at RT. To start the reaction, 10 μL 2-arachidonoylglycerol in assay buffer was added. The final concentrations in the assay was […] and 8 μM 2-arachidonoylglyerol. After shaking and 30 min incubation at RT, the reaction was quenched by the addition of 40 μL of ACN containing 4 μM of d8-arachidonic acid. The amount of arachidonic acid was traced by an online SPE system (Agilent Rapidfire) coupled to a triple quadrupole mass spectrometer (Agilent 6460). A C18 SPE cartridge (G9205A) was used in an ACN/water liquid setup. The mass spectrometer was operated in negative electrospray mode following the mass transitions 303.1→259.1 for arachidonic acid and 311.1→267.0 for d8-arachidonic acid. The activity of the compounds was calculated based on the ratio of intensities [arachidonic acid/d8-arachidonic acid].
Regarding `Cc1ccnnc1-c1cccc(C(=O)N2CCN3C[C@@H](c4ccc(F)c(Cl)c4)OC[C@@H]3C2)c1Cl` [Example 34, [(3R,9aS)-3-(3-chloro-4-fluoro-phenyl)-3,4,6,7,9,9a-hexahydro-1H-pyrazino[2,1-c][1,4]oxazin-8-yl]-[2-chloro-3-(4-methylpyridazin-3-yl)phenyl]methanone], the IC50 (as a rule, the midpoint of a concentration-inhibition curve) was found to be 1440 nM. Under `Cc1cncnc1-c1cccc(C(=O)N2CCN3C[C@@H](c4ccc(F)c(Cl)c4)OC[C@@H]3C2)c1Cl` [Example 35, [(3R,9aS)-3-(3-chloro-4-fluoro-phenyl)-3,4,6,7,9,9a-hexahydro-1H-pyrazino[2,1-c][1,4]oxazin-8-yl]-[2-chloro-3-(5-methylpyrimidin-4-yl)phenyl]methanone] stands 1080 nM. Compound `O=C(c1cccc(-c2cnc[nH]2)c1Cl)N1CCN2C[C@@H](c3ccc(F)c(Cl)c3)OC[C@@H]2C1` [Example 36, [(3R,9aS)-3-(3-chloro-4-fluoro-phenyl)-3,4,6,7,9,9a-hexahydro-1H-pyrazino[2,1-c][1,4]oxazin-8-yl]-[2-chloro-3-(1H-imidazol-5-yl)phenyl]methanone] returned an IC50 of 7.4 nM. The compound `Cc1cccnc1-c1cccc(C(=O)N2CCN3C[C@@H](c4ccc(F)c(Cl)c4)OC[C@@H]3C2)c1Cl` [Example 37, [(3R,9aS)-3-(3-chloro-4-fluoro-phenyl)-3,4,6,7,9,9a-hexahydro-1H-pyrazino[2,1-c][1,4]oxazin-8-yl]-[2-chloro-3-(3-methyl-2-pyridyl)phenyl]methanone] showed an IC50 of 277 nM. The result for `O=C(c1cccc(-c2cn[nH]c2)c1Cl)N1CCN2C[C@@H](c3ccc(F)c(Cl)c3)OC[C@@H]2C1` [Example 38, [(3R,9aS)-3-(3-chloro-4-fluoro-phenyl)-3,4,6,7,9,9a-hexahydro-1H-pyrazino[2,1-c][1,4]oxazin-8-yl]-[2-chloro-3-(1H-pyrazol-4-yl)phenyl]methanone] reads 1.9 nM; that for `Cc1c(-c2cccc(C(=O)N3CCN4C[C@@H](c5ccc(F)c(Cl)c5)OC[C@@H]4C3)c2Cl)cnn1C` [Example 39, [(3R,9aS)-3-(3-chloro-4-fluoro-phenyl)-3,4,6,7,9,9a-hexahydro-1H-pyrazino[2,1-c][1,4]oxazin-8-yl]-[2-chloro-3-(1,5-dimethylpyrazol-4-yl)phenyl]methanone], 49.7 nM; that for `Cc1nocc1-c1cccc(C(=O)N2CCN3C[C@@H](c4ccc(F)c(Cl)c4)OC[C@@H]3C2)c1Cl` [Example 40, [(3R,9aS)-3-(3-chloro-4-fluoro-phenyl)-3,4,6,7,9,9a-hexahydro-1H-pyrazino[2,1-c][1,4]oxazin-8-yl]-[2-chloro-3-(3-methylisoxazol-4-yl)phenyl]methanone], 160 nM. Under `Cc1n[nH]c2ccc(C(=O)N3CCN4C[C@@H](c5ccc(F)c(Cl)c5)OC[C@@H]4C3)c(Cl)c12` [Example 41, [(3R,9aS)-3-(3-chloro-4-fluoro-phenyl)-3,4,6,7,9,9a-hexahydro-1H-pyrazino[2,1-c][1,4]oxazin-8-yl]-(4-chloro-3-methyl-1H-indazol-5-yl)methanone] stands 63.8 nM; under `O=C(c1cccc(N2CC3(COC3)C2)c1Cl)N1CCN2C[C@@H](c3ccc(F)c(Cl)c3)OC[C@@H]2C1` [Example 42, [(3R,9aS)-3-(3-chloro-4-fluoro-phenyl)-3,4,6,7,9,9a-hexahydro-1H-pyrazino[2,1-c][1,4]oxazin-8-yl]-[2-chloro-3-(2-oxa-6-azaspiro[3.3]heptan-6-yl)phenyl]methanone], 48.6 nM; under `O=C(c1cccc(N2CCOCC2)c1Cl)N1CCN2C[C@@H](c3ccc(F)c(Cl)c3)OC[C@@H]2C1` [Example 43, [(3R,9aS)-3-(3-chloro-4-fluoro-phenyl)-3,4,6,7,9,9a-hexahydro-1H-pyrazino[2,1-c][1,4]oxazin-8-yl]-(2-chloro-3-morpholino-phenyl)methanone], 120 nM. Compound `O=C(c1cccc(-c2cnn[nH]2)c1Cl)N1CCN2C[C@@H](c3ccc(F)c(Cl)c3)OC[C@@H]2C1` [Example 44, [(3R,9aS)-3-(3-chloro-4-fluoro-phenyl)-3,4,6,7,9,9a-hexahydro-1H-pyrazino[2,1-c][1,4]oxazin-8-yl]-[2-chloro-3-(1H-triazol-5-yl)phenyl]methanone] showed an IC50 of 50 nM.

Consider `COc1cccc(C(=O)N2CCN3C[C@@](O)(c4ccc(F)c(Cl)c4)OC[C@@H]3C2)c1Cl` [Example 45, [(3R,9aS)-3-(3-chloro-4-fluoro-phenyl)-3-hydroxy-1,4,6,7,9,9a-hexahydropyrazino[2,1-c][1,4]oxazin-8-yl]-(2-chloro-3-methoxy-phenyl)methanone], for which half-maximal inhibition (IC50) was put at 19.4 nM. Under `COc1cccc(C(=O)N2CCN3C[C@](O)(c4ccc(F)c(Cl)c4)OC[C@H]3C2)c1Cl` [Example 46, [(3S,9aR)-3-(3-chloro-4-fluoro-phenyl)-3-hydroxy-1,4,6,7,9,9a-hexahydropyrazino[2,1-c][1,4]oxazin-8-yl]-(2-chloro-3-methoxy-phenyl)methanone] stands 178 nM; under `O=C(c1cccc(-c2c[nH]nc2F)c1Cl)N1CCN2C[C@@H](c3ccc(F)c(Cl)c3)OC[C@@H]2C1` [Example 49, [(3R,9aS)-3-(3-chloro-4-fluoro-phenyl)-3,4,6,7,9,9a-hexahydro-1H-pyrazino[2,1-c][1,4]oxazin-8-yl]-[2-chloro-3-(3-fluoro-1H-pyrazol-4-yl)phenyl]methanone], 1 nM. Under `O=C(c1cccc(-c2c[nH]nc2F)c1Cl)N1CCN2C[C@H](c3ccc(F)c(Cl)c3)OC[C@@H]2C1` [Example 50, [(3S,9aS)-3-(3-chloro-4-fluoro-phenyl)-3,4,6,7,9,9a-hexahydro-1H-pyrazino[2,1-c][1,4]oxazin-8-yl]-[2-chloro-3-(3-fluoro-1H-pyrazol-4-yl)phenyl]methanone] stands 418 nM; under `O=C(c1cccc(-c2c[nH]nc2F)c1Cl)N1CCN2C[C@@](O)(c3ccc(C(F)(F)F)nc3)OC[C@@H]2C1` [Example 65, [(3R,9aS)-3-hydroxy-3-[6-(trifluoromethyl)pyridin-3-yl]-1,4,6,7,9,9a-hexahydropyrazino[2,1-c][1,4]oxazin-8-yl]-[2-chloro-3-(3-fluoro-1H-pyrazol-4-yl)phenyl]methanone], 13.8 nM; under `O=C(c1cccc(-c2c[nH]nc2F)c1Cl)N1CCN2C[C@@](O)(c3ccc(OC(F)F)cc3)OC[C@@H]2C1` [Example 69, [2-chloro-3-(3-fluoro-1H-pyrazol-4-yl)phenyl]-[(3R,9aS)-3-[4-(difluoromethoxy)phenyl]-3-hydroxy-1,4,6,7,9,9a-hexahydropyrazino[2,1-c][1,4]oxazin-8-yl]methanone], 51.8 nM. As for `COc1cccc(C(=O)N2CCN3C[C@@](O)(c4nc5ccccc5n4C)OC[C@@H]3C2)c1Cl` [Example 71, [(3S,9aS)-3-hydroxy-3-(1-methylbenzimidazol-2-yl)-1,4,6,7,9,9a-hexahydropyrazino[2,1-c][1,4]oxazin-8-yl]-(2-chloro-3-methoxy-phenyl)methanone], the IC50 worked out at 4030 nM. The result for `N#Cc1cc([C@@H]2CN3CCN(C(=O)c4cccc(-c5c[nH]nc5F)c4Cl)C[C@H]3CO2)ccc1F` [Example 72, 5-[(3R,9aS)-8-[2-chloro-3-(3-fluoro-1H-pyrazol-4-yl)benzoyl]-3,4,6,7,9,9a-hexahydro-1H-pyrazino[2,1-c][1,4]oxazin-3-yl]-2-fluoro-benzonitrile] reads 61.4 nM; that for `COc1cccc(C(=O)N2CCN3C[C@H](c4cc(Cl)c[nH]c4=O)OC[C@@H]3C2)c1Cl` [Example 74, 3-[(3S,9aS)-8-(2-chloro-3-methoxy-benzoyl)-3,4,6,7,9,9a-hexahydro-1H-pyrazino[2,1-c][1,4]oxazin-3-yl]-5-chloro-1H-pyridin-2-one], 2210 nM; that for `COc1cccc(C(=O)N2CCN3C[C@@H](c4cc(Cl)c[nH]c4=O)OC[C@@H]3C2)c1Cl` [Example 75, 3-[(3R,9aS)-8-(2-chloro-3-methoxy-benzoyl)-3,4,6,7,9,9a-hexahydro-1H-pyrazino[2,1-c][1,4]oxazin-3-yl]-5-chloro-1H-pyridin-2-one], 850 nM. The compound `O=C(c1cccc(-c2cnco2)c1Cl)N1CCN2C[C@@](O)(c3ccc(F)c(Cl)c3)OC[C@@H]2C1` [Example 76, [(3R,9aS)-3-(3-chloro-4-fluoro-phenyl)-3-hydroxy-1,4,6,7,9,9a-hexahydropyrazino[2,1-c][1,4]oxazin-8-yl]-(2-chloro-3-oxazol-5-yl-phenyl)methanone] registered an IC50 of 15.5 nM.
